Test results: patent US10245275B2 (ViiV HEALTHCARE UK (NO.4) LIMITED, priority 2014, dated 2019)
Where two headings read alike, the source gives them in different places.

Experiments:
[1] = system: WT (wild-type HIV virus; recombinant NL4-3 virus); assay: microbe, parasite or virus in culture; type: cell-based, HIV-1
Experimental: (§1) MT-2 cells and 293T cells were obtained from the NIH AIDS Research and Reference Reagent Program. MT-2 cells were propagated in RPMI 1640 media supplemented with 10% heat-inactivated fetal bovine serum, […]. The 293T cells were propagated in DMEM media supplemented with 10% heat-inactivated fetal bovine serum (FBS), 100 units/mL penicillin G and 100 μg/mL streptomycin. […] A recombinant NL4-3 virus, in which a section of the nef gene from NL4-3 was replaced with the Renilla luciferase gene, was used as a reference virus. In addition, residue Gag P373 was converted to P373S. […] Transfections were performed in 293T cells using LipofectAMINE PLUS from Invitrogen (Carlsbad, Calif.), according to manufacturer's instruction. The virus was titered in MT-2 cells using luciferase enzyme activity as a marker. Luciferase was quantitated using the Dual Luciferase kit from Promega (Madison, Wis.), with modifications to the manufacturer's protocol. The diluted Passive Lysis solution was pre-mixed with the re-suspended Luciferase Assay Reagent and the re-suspended Stop & Glo Substrate (2:1:1 ratio). Fifty (50) μL of the mixture was added to each aspirated well on assay plates and luciferase activity was measured immediately on a Wallac TriLux (Perkin-Elmer). Antiviral activities of inhibitors toward the recombinant virus were quantified by measuring luciferase activity in cells infected for 4-5 days with NLRluc recombinants in the presence serial dilutions of the inhibitor.
WT refers to wild-type HIV virus. […]

[2] = system: HIV-1 NL4-3 gag A364V virus; assay: microbe, parasite or virus in culture; type: cell-based
Experimental: as §1
Both recombinant viruses were used as described above in the HIV cell culture assay for the NL4-3 virus.

[3] = Human immunodeficiency virus 1, NL43, MT2, read-out: WT (EC50, uM), Table 1 regular screen, MT-2 cells, luciferase readout
[4] = Human immunodeficiency virus 1, NL43, MT2, read-out: A364V (EC50, uM), Table 1 regular screen, MT-2 cells, luciferase readout
[5] = Human immunodeficiency virus 1, NL43, MT2, read-out: WT (EC50, uM), Table 1 regular screen, class symbol
[6] = Human immunodeficiency virus 1, NL43, MT2, read-out: A364V (EC50, uM), Table 1 regular screen, class symbol

SMILES | EC50 [1, 3] [µM] | EC50 [2, 4] [µM] | EC50 [1, 5] [µM] | EC50 [2, 6] [µM]
C=C(C)[C@@H]1CC[C@]2(NCCC3(O)CCN(S(C)(=O)=O)CC3)CC[C@]3(C)[C@H](CC[C@@H]4[C@@]5(C)CC=C(C6=CC[C@](CF)(C(=O)O)CC6)C(C)(C)[C@@H]5CC[C@]43C)[C@@H]12 [Example 2-14, (S)-1-(fluoromethyl)-4-((1R,3aS,5aR,5bR,7aR,11aS,11bR,13aR,13bR)-3a-((2-(4-hydroxy-1-(methylsulfonyl)piperidin-4-yl)ethyl)amino)-5a,5b,8,8,11a-pentamethyl-1-(prop-1-en-2-yl)-2,3,3a,4,5,5a,5b,6,7,7a,8,11,11a,11b,12,13,13a,13b-octadecahydro-1H-cyclopenta[a]chrysen-9-yl)cyclohex-3-enecarboxylic acid] | 0.00256 | 0.0431 |  | 
C=C(C)[C@@H]1CC[C@]2(NCCC(C)(C)O)CC[C@]3(C)[C@H](CC[C@@H]4[C@@]5(C)CC=C(C6=CC[C@](CF)(C(=O)O)CC6)C(C)(C)[C@@H]5CC[C@]43C)[C@@H]12 [Example 2-1, (S)-1-(fluoromethyl)-4-((1R,3aS,5aR,5bR,7aR,11aS,11bR,13aR,13bR)-3a-((3-hydroxy-3-methylbutyl)amino)-5a,5b,8,8,11a-pentamethyl-1-(prop-1-en-2-yl)-2,3,3a,4,5,5a,5b,6,7,7a,8,11,11a,11b,12,13,13a,13b-octadecahydro-1H-cyclopenta[a]chrysen-9-yl)cyclohex-3-enecarboxylic acid] |  |  | < 0.05 | > 0.05
C=C(C)[C@@H]1CC[C@]2(NCC(=O)N3CCCS(=O)(=O)CC3)CC[C@]3(C)[C@H](CC[C@@H]4[C@@]5(C)CC=C(C6=CC[C@](CF)(C(=O)O)CC6)C(C)(C)[C@@H]5CC[C@]43C)[C@@H]12 [Example 34, (S)-4-((1R,3aS,5aR,5bR,7aR,11aS,11bR,13aR,13bR)-3a-((2-(1,1-dioxido-1,4-thiazepan-4-yl)-2-oxoethyl)amino)-5a,5b, 8,8,11a-pentamethyl-1-(prop-1-en-2-yl)-2,3,3a,4,5,5a,5b,6,7,7a,8,11,11a,11b,12,13,13a,13b-octadecahydro-1H-cyclopenta[a]chrysen-9-yl)-1-(fluoromethyl)cyclohex-3-enecarboxylic acid] |  |  | < 0.05 | < 0.05
C=C(C)[C@@H]1CC[C@]2(NCC(=O)O)CC[C@]3(C)[C@H](CC[C@@H]4[C@@]5(C)CC=C(C6=CC[C@](CF)(C(=O)O)CC6)C(C)(C)[C@@H]5CC[C@]43C)[C@@H]12 [Example 28, (S)-4-((1R,3aS,5aR,5bR,7aR,11aS,11bR,13aR,13bR)-3a-((carboxymethyl)amino)-5a,5b, 8,8,11a-pentamethyl-1-(prop-1-en-2-yl)-2,3,3a,4,5,5a,5b,6,7,7a,8,11,11a,11b,12,13,13a,13b-octadecahydro-1H-cyclopenta[a]chrysen-9-yl)-1-(fluoromethyl)cyclohex-3-enecarboxylic acid] |  |  | > 0.05 | > 0.05
C=C(C)[C@@H]1CC[C@]2(NCCC3(O)COC3)CC[C@]3(C)[C@H](CC[C@@H]4[C@@]5(C)CC=C(C6=CC[C@](CF)(C(=O)O)CC6)C(C)(C)[C@@H]5CC[C@]43C)[C@@H]12 [Example 2-10, (S)-1-(fluoromethyl)-4-((1R,3aS,5aR,5bR,7aR,11aS,11bR,13aR,13bR)-3a-((2-(3-hydroxyoxetan-3-yl)ethyl)amino)-5a,5b, 8,8,11a-pentamethyl-1-(prop-1-en-2-yl)-2,3,3a,4,5,5a,5b,6,7,7a,8,11,11a,11b,12,13,13a,13b-octadecahydro-1H-cyclopenta[a]chrysen-9-yl)cyclohex-3-enecarboxylic acid] |  |  | < 0.05 | > 0.05
C=C(C)[C@@H]1CC[C@]2(NCC[C@]3(O)CC[C@@H](S(C)(=O)=O)CC3)CC[C@]3(C)[C@H](CC[C@@H]4[C@@]5(C)CC=C(C6=CC[C@](CF)(C(=O)O)CC6)C(C)(C)[C@@H]5CC[C@]43C)[C@@H]12 [Example 2-19, (S)-1-(fluoromethyl)-4-((1R,3aS,5aR,5bR,7aR,11aS,11bR,13aR,13bR)-3a-((2-((cis)-1-hydroxy-4-(methylsulfonyl)cyclohexyl)ethyl)amino)-5a,5b,8,8,11a-pentamethyl-1-(prop-1-en-2-yl)-2,3,3a,4,5,5a,5b,6,7,7a,8,11,11a,11 b,12,13,13a,13b-octadecahydro-1H-cyclopenta[a]chrysen-9-yl)cyclohex-3-enecarboxylic acid] | 0.00135 | 0.0222 |  | 
C=C(C)[C@@H]1CC[C@]2(NCCN3CC(C)S(=O)(=O)C(C)C3)CC[C@]3(C)[C@H](CC[C@@H]4[C@@]5(C)CC=C(C6=CC[C@](CF)(C(=O)O)CC6)C(C)(C)[C@@H]5CC[C@]43C)[C@@H]12 (stereo partly drawn) [Example 25, (1S)-4-((1R,3aS,5aR,5bR,7aR,11aS,11bR,13aR,13bR)-3a-((2-(2,6-dimethyl-1,1-dioxidothiomorpholino)ethyl)amino)-5a,5b, 8,8,11a-pentamethyl-1-(prop-1-en-2-yl)-2,3,3a,4,5,5a,5b,6,7,7a,8,11,11a,11b,12,13,13a,13b-octadecahydro-1H-cyclopenta[a]chrysen-9-yl)-1-(fluoromethyl)cyclohex-3-enecarboxylic acid] |  |  | < 0.05 | > 0.05
C=C(C)[C@@H]1CC[C@]2(NC(=O)CC3CCOCC3)CC[C@]3(C)[C@H](CC[C@@H]4[C@@]5(C)CC=C(C6=CC[C@](CF)(C(=O)O)CC6)C(C)(C)[C@@H]5CC[C@]43C)[C@@H]12 [Example 8, (S)-1-(fluoromethyl)-4-((1R,3aS,5aR,5bR,7aR,11aS,11bR,13aR,13bR)-5a,5b,8,8,11a-pentamethyl-1-(prop-1-en-2-yl)-3a-(2-(tetrahydro-2H-pyran-4-yl)acetamido)-2,3,3a,4,5,5a,5b,6,7,7a,8,11,11a,11b,12,13,13a,13b-octadecahydro-1H-cyclopenta[a]chrysen-9-yl)cyclohex-3-enecarboxylic acid] |  |  | > 0.05 | > 0.05
C=C(C)[C@@H]1CC[C@]2(NCC(=O)N3CCC(C)(O)CC3)CC[C@]3(C)[C@H](CC[C@@H]4[C@@]5(C)CC=C(C6=CC[C@](CF)(C(=O)O)CC6)C(C)(C)[C@@H]5CC[C@]43C)[C@@H]12 [Example 30, (S)-1-(fluoromethyl)-4-((1R,3aS,5aR,5bR,7aR,11aS,11bR,13aR,13bR)-3a-((2-(4-hydroxy-4-methylpiperidin-1-yl)-2-oxoethyl)amino)-5a,5b,8,8,11a-pentamethyl-1-(prop-1-en-2-yl)-2,3,3a,4,5,5a,5b,6,7,7a,8,11,11a,11b,12,13,13a,13b-octadecahydro-1H-cyclopenta[a]chrysen-9-yl)cyclohex-3-enecarboxylic acid] | 0.00298 | 0.551 |  | 
C=C(C)[C@@H]1CC[C@]2(NCC(=O)N3C[C@@H]4C[C@H]3CS4(=O)=O)CC[C@]3(C)[C@H](CC[C@@H]4[C@@]5(C)CC=C(C6=CC[C@](CF)(C(=O)O)CC6)C(C)(C)[C@@H]5CC[C@]43C)[C@@H]12 [Example 37, (S)-4-((1R,3aS,5aR,5bR,7aR,11aS,11bR,13aR,13bR)-3a-((2-((1S,4S)-2,2-dioxido-2-thia-5-azabicyclo[2.2.1]heptan-5-yl)-2-oxoethyl)amino)-5a,5b,8,8,11a-pentamethyl-1-(prop-1-en-2-yl)-2,3,3a,4,5,5a,5b,6,7,7a,8,11,11a,11 b,12,13,13a,13b-octadecahydro-1H-cyclopenta[a]chrysen-9-yl)-1-(fluoromethyl)cyclohex-3-enecarboxylic acid] |  |  | < 0.05 | > 0.05
C=C(C)[C@@H]1CC[C@]2(NCCC(C)C)CC[C@]3(C)[C@H](CC[C@@H]4[C@@]5(C)CC=C(C6=CC[C@](CF)(C(=O)O)CC6)C(C)(C)[C@@H]5CC[C@]43C)[C@@H]12 [Example 2-7, (S)-1-(fluoromethyl)-4-((1R,3aS,5aR,5bR,7aR,11aS,11bR,13aR,13bR)-3a-(isopentylamino)-5a,5b,8,8,11a-pentamethyl-1-(prop-1-en-2-yl)-2,3,3a,4,5,5a,5b,6,7,7a,8,11,11a,11b,12,13,13a,13b-octadecahydro-1H-cyclopenta[a]chrysen-9-yl)cyclohex-3-enecarboxylic acid] | 0.116 | 3 |  | 
C=C(C)[C@@H]1CC[C@]2(NCCC3(O)CCN(C(C)=O)CC3)CC[C@]3(C)[C@H](CC[C@@H]4[C@@]5(C)CC=C(C6=CC[C@](CF)(C(=O)O)CC6)C(C)(C)[C@@H]5CC[C@]43C)[C@@H]12 [Example 2-15, (S)-4-((1R,3aS,5aR,5bR,7aR,11aS,11bR,13aR,13bR)-3a-((2-(1-acetyl-4-hydroxypiperidin-4-yl)ethyl)amino)-5a,5b, 8,8,11a-pentamethyl-1-(prop-1-en-2-yl)-2,3,3a,4,5,5a,5b,6,7,7a,8,11,11a,11b,12,13,13a,13b-octadecahydro-1H-cyclopenta[a]chrysen-9-yl)-1-(fluoromethyl)cyclohex-3-enecarboxylic acid] | 0.00173 | 0.151 |  | 
